In patent US10238624B2, “Composition for activating longevity genes, containing kojic acid derivative as active ingredient” (AMOREPACIFIC CORPORATION, priority 2015, dated 2019):

Tests used:
Type in all cases: cell-based
ERCC8 mRNA [1] = assay: Relative expression of ERCC8 mRNA in fibroblasts (TaqMan RT-PCR); conditions: normal human fibroblasts, 10 ppm, 37° C., 24 hours; control = 1.0
Protocol: (§1) In order to investigate the effect of the kojic acid derivative according to the present disclosure on the activation of longevity genes, the effect of kojyl methylenedioxycinnamate on the activation of Sirt-1, Klotho, XPD and ERCC8 was compared with that of retinol using normal human keratinocytes (NHKs) and normal human fibroblasts (NHFs).
(§2) Specifically, after treating the keratinocytes (NHKs) and fibroblasts (NHFs) with kojyl methylenedioxycinnamate or retinol at 10 ppm and incubating them at 37° C. for 24 hours, the relative expression of Sirt-1, Klotho, XPD and ERCC8 mRNAs was compared by isolating the total RNAs from the cells. The NHFs were purchased from Lonza (Allendale, N.J., USA) and incubated at 37° C. for 24 hours using DMEM after transferring 2×10^5 cells onto a 60-mm dish. After discarding the medium, the cells were transferred to a fresh tissue culture flask. […]
(§3) The total RNAs were isolated using TRIzol™ (Invitrogen, Carlsbad, Calif., USA) according to the manufacturer's instructions. RNA concentration was measured spectrophotometrically and RNA integrity was measured using BioAnalyzer 2100 (Agilent Technologies, Santa Clara, Calif., USA). […] Target gene expression level was measured by quantitative real-time TaqMan RT-PCR (7500Fast, Applied Biosystems, Foster City, Calif., USA). […]

Klotho mRNA [2] = assay: Relative expression of Klotho mRNA in keratinocytes (TaqMan RT-PCR); conditions: normal human keratinocytes, 10 ppm, 37° C., 24 hours; control = 1.0
Protocol: as §1, §2, §3

XPD mRNA [3] = assay: Relative expression of XPD mRNA in keratinocytes (TaqMan RT-PCR); conditions: normal human keratinocytes, 10 ppm, 37° C., 24 hours; control = 1.0
Protocol: as §1, §2, §3

Klotho mRNA [4] = assay: Relative expression of Klotho mRNA in fibroblasts (TaqMan RT-PCR); conditions: normal human fibroblasts, 10 ppm, 37° C., 24 hours; control = 1.0
Protocol: as §1, §2, §3

XPD mRNA [5] = assay: Relative expression of XPD mRNA in fibroblasts (TaqMan RT-PCR); conditions: normal human fibroblasts, 10 ppm, 37° C., 24 hours; control = 1.0
Protocol: as §1, §2, §3

Sirt-1 mRNA [6] = assay: Relative expression of Sirt-1 mRNA in fibroblasts (TaqMan RT-PCR); conditions: normal human fibroblasts, 10 ppm, 37° C., 24 hours; control = 1.0
Protocol: as §1, §2, §3

Sirt-1 mRNA [7] = assay: Relative expression of Sirt-1 mRNA in keratinocytes (TaqMan RT-PCR); conditions: normal human keratinocytes, 10 ppm, 37° C., 24 hours; control = 1.0
Protocol: as §1, §2, §3

FoxO3a = FoxO3a activation by nuclear translocation rate in human MNT1 melanoma cells (DAPI/anti-FoxO3a confocal microscopy); conditions: 48 hours; for nuclear translocation rate: control 13.2%
Protocol: In order to investigate the effect of the kojic acid derivative according to the present disclosure on the activation of longevity genes, the effect of the kojyl methylenedioxycinnamate seletinoid G on the activation of the FoxO3a gene was investigated by measuring nuclear translocation rate using human MNT1 melanoma cells purchased from Lonza.
The degree of FoxO3a activation was evaluated based on violet fluorescence resulting from the overlapping of red and blue fluorescence. • Primary antibody: anti-FoxO3a (1:200), 4° C., overnight. • Secondary antibody: Alexa Fluor 555-conjugated goat (1:5000), room temperature, 1 hour.

ERCC8 mRNA [8] = assay: Relative expression of ERCC8 mRNA in keratinocytes (TaqMan RT-PCR); conditions: normal human keratinocytes, 10 ppm, 37° C., 24 hours; control = 1.0
Protocol: as §1, §2, §3

Compound | relative expression of ERCC8 mRNA (ERCC8 mRNA [1]) | relative expression of Klotho mRNA (Klotho mRNA [2]) | relative expression of XPD mRNA (XPD mRNA [3]) | relative expression of Klotho mRNA (Klotho mRNA [4]) | relative expression of XPD mRNA (XPD mRNA [5]) | relative expression of Sirt-1 mRNA (Sirt-1 mRNA [6]) | relative expression of Sirt-1 mRNA (Sirt-1 mRNA [7]) | activation of the longevity gene FoxO3a (in words) (FoxO3a; 15-450 ppm) | nuclear translocation rate (FoxO3a; 15 ppm) | nuclear translocation rate (FoxO3a; 150 ppm) | nuclear translocation rate (FoxO3a; 450 ppm) | relative expression of ERCC8 mRNA (ERCC8 mRNA [8])
O=C(/C=C/c1ccc2c(c1)OCO2)OCc1cc(=O)c(O)co1 [Kojyl methylenedioxycinnamate, kojyl methylenedioxycinnamate] | 1.4 | 9.1 | 8.5 | 2.5 | 3.5 | 2.4 | 5.2 | remarkably activates | 35.7% | 86.3% | 66.9% | 1.9
CC1=C(/C=C/C(C)=C/C=C/C(C)=C/CO)C(C)(C)CCC1 [Retinol, retinol, reference compound] | 1.3 | 8.9 | 8.2 | 2.2 | 2.5 | 2.5 | 4.6 | – | – | – | – | 1.5
